From patent US10905736B2, “Ezetimibe-associated ApoA-I mimetic peptides showing enhanced synergism” (The Regents of the University of California, priority 2016, dated 2021)
Entries after “also recorded” stand apart in the source; their conditions may differ.

Test system: LDLR null mice
Assay: Plasma lipid levels (total cholesterol, triglycerides, HDL-cholesterol) in LDLR null mice fed Western diet for two weeks
Format: in vivo, mouse
Protocol: Res. Per. 3: e00154; Chattopadhyay et al. (2016) J. Lipid Res. 57: 832-847; PCT Pub. Nos: WO 2013/148214 (PCT/US2013/031037), WO 2015/175968 (PCT/US2015/031134)) (Tg6F), or the mice were fed WD with Ezetimibe added to give a daily dose of 10 mg/kg body weight/day (WD+Ezetimibe), or the mice were fed WD with Tg6F added at 0.06% by weight plus Ezetimibe (each added separately to the diet) to give a daily dose of Ezetimibe of 10 mg/kg body weight; the Tg6F and Ezetimibe were mixed into WD as described previously (Chattopadhyay et al. (2016) J. Lipid. Res. 57: 832-847) (Combined Formulation), or the mice were fed WD to which was added ezetimibe-associated transgenic 6F peptide (Ez-tg6F) at 0.06% Tg6F by weight containing sufficient Ezetimibe to give a daily dose of 10 mg/kg body weight/day that was prepared as described herein. Specifically, the ezetimibe-associated Tg6F peptide (Ez-Tg6F) was made by adding the ezetimibe directly to a solution of ethyl acetate 5% acetic acid that had been incubated overnight at room temperature with freeze-dried tomato powder obtained from transgenic tomatoes expressing the 6F peptide, and which had been removed to a separate vessel as described previously (see, e.g., Chattopadhyay et al. (2015) Pharma. Res. Per. 3: e00154; Chattopadhyay et al. (2016) J. Lipid. Res. 57: 832-847) prior to addition of the ezetimibe. After the addition of the ezetimibe, the solution was incubated at room temperature with gentle mixing for two hours prior to processing and addition of the resulting freeze-dried powder to WD as previously described (Chattopadhyay et al. (2016) J. Lipid. Res. 57: 832-847). After feeding the diets for two weeks, the mice were bled and total plasma cholesterol levels were determined as described (Id.). NS=Not Significant.
LDLR-null mice originally purchased from Jackson Laboratories on a C57BL/6J background were obtained from the breeding colony of the Department of Laboratory and Animal Medicine at the David Geffen School of Medicine at UCLA. The gender and age of the mice are stated in the legend to each figure. The mice were maintained on standard mouse chow (Ralston Purina) before being switched to a Western diet WD (Teklad, Harlan, catalog #TD88137).
In experiments in which Tg6F or EV or Ezetimibe were administered as single agents, the EV or Tg6F concentrate was added to WD at 0.06% by weight or Ezetimibe was added to WD to give a final dose of 10 mg/kg body weight/day. The EV or Tg6F concentrate or Ezetimibe was mixed into the diets as described (Chattopadhyay et al. (2015) Pharma. Res. Per. 3: e00154). […]

O=C1[C@H](CC[C@H](O)c2ccc(F)cc2)[C@@H](c2ccc(O)cc2)N1c1ccc(F)cc1 [Ezetimibe, (3R,4S)-1-(4-fluorophenyl)-3-[(3S)-3-(4-fluorophenyl)-3-hydroxypropyl]-4-(4-hydroxyphenyl)azetidin-2-one]
dyslipidemia (plasma total cholesterol, triglycerides, HDL-Cholesterol) (female LDLR null mice age 3-6 months, n=20-28 per group, WD two weeks, Tg6F 0.06% by weight, Ezetimibe 10 mg/kg/day, FIG. 15): significantly ameliorated dyslipidemia | plasma triglyceride levels (statement over the experiments of Example 3 (single agents five out of five, Combined Formulation five out of five, Novel Method three out three experiments)): equally effective; also recorded: improved plasma total cholesterol and triglyceride levels | plasma total cholesterol levels (statement over the experiments of Example 3 (single agents five out of five, Combined Formulation four out of five, Novel Method three out three experiments)): equally effective; also recorded: improved plasma total cholesterol and triglyceride levels | plasma HDL-cholesterol levels (statement over the experiments of Example 3 (single agents four out of four, Combined Formulation four out of four, Novel Method two out of two experiments)): equally effective; also recorded: significantly increased the levels
